The test deals with MAPK14 (UniProt Q16539). Kind of test: Enzyme Assay.

Our source for the IC50 values is the Kinase Knowledgebase extract (Sharma et al. 2016).

Sequence of MAPK14 (Q16539 whole entry, looked up): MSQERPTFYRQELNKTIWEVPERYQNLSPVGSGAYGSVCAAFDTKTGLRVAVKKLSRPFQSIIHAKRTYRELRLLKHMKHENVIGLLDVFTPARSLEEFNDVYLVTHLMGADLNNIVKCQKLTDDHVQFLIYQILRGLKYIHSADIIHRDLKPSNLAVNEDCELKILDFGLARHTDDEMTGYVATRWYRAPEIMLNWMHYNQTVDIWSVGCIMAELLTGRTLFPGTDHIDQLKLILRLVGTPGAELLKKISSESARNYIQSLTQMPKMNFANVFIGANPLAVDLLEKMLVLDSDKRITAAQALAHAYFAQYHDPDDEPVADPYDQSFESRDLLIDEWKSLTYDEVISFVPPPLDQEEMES

Take `CC(C)(C)c1ccc(C(=O)Nc2ccc(F)c(COc3cnccn3)c2)cc1`: the IC50 was under 20 µM.

Compound `O=C(Nc1ccc(F)c(COc2cccnc2)c1)c1cccc(F)c1` showed an IC50 of under 200 µM.

On to `CC(C)(CO)NC(=O)Nc1cnc(OCc2c(Cl)cccc2Cl)cn1`, for which the IC50 was under 2 µM.

`O=C(Nc1ccc(Cl)c(COc2cccnc2)c1)c1ccncc1` came in with an IC50 of under 200 µM.

As for `CC(C)(C)C(=O)Nc1cnc(OCc2c(Cl)cccc2Cl)cn1`, the IC50 is under 200 µM.

Compound `O=C(Nc1ccc(F)c(COc2cccnc2)c1)c1cc(F)cc(N2CCOCC2)c1` returned an IC50 of under 2 µM.

Take `O=C(Nc1ccc(Cl)c(COc2cnccn2)c1)c1ccccc1`: the IC50 is under 20 µM.

Compound `CC(C)(C)c1cc(NC(=O)Nc2ccc(Cl)c(COc3cnccn3)c2)[nH]n1` returned an IC50 of under 20 µM.

`O=C(Nc1ccc(F)c(COc2cnccn2)c1)Nc1cc(-c2ccccc2)[nH]n1` displayed an IC50 of under 2 µM.

As for `CN1CCC(CC(=O)Nc2cnc(OCc3c(Cl)cccc3Cl)cn2)CC1`, the IC50 was under 200 µM.

In the case of `CC(C)(C)c1cccc(C(=O)Nc2ccc(Cl)c(COc3cccnc3)c2)c1`, the IC50 is under 2 µM.

In the case of `CNc1cnc(OCc2c(Cl)cccc2Cl)cn1`, the IC50 is under 200 µM.

As for `Nc1ncccc1OCc1cccc(Cl)c1`, the IC50 is under 1000 µM.

In turn, `CC(C)(CO)C(=O)Nc1cnc(OCc2c(Cl)cccc2Cl)cn1` displayed an IC50 of under 200 µM.

For the compound `CC(C)(C)c1cc(NC(=O)Nc2ccc(F)c(COc3cnccn3)c2)n(-c2ccc(F)cc2F)n1`, the IC50 is under 2 µM.

`O=C1c2ccccc2C(=O)N1c1ccc(Cl)c(COc2cccnc2)c1` returned an IC50 of under 1000 µM.

In turn, `CC(C)(C)c1cc(C(=O)Nc2ccc(F)c(COc3cnccn3)c2)cc(C(C)(C)C)c1` gave an IC50 of under 2 µM.

As to `O=C(Nc1ccc(Cl)c(COc2cnccn2)c1)c1ccnc(N2CCOCC2)c1`, the IC50 is under 2 µM.

Regarding `Nc1ccc(Cl)c(COc2cnccn2)c1`, the IC50 is under 1000 µM.

With `Nc1ncccc1OCc1ccccc1C(F)(F)F`, the IC50 was under 100 µM.

`Cc1ccc2ccccc2c1COc1cccnc1N` showed an IC50 of under 100 µM.

On to `Clc1cccc(Cl)c1COc1cnccn1`, for which the IC50 is under 200 µM.

Take `O=C(Nc1ccccc1)C(=O)Nc1ccc(Cl)c(COc2cccnc2)c1`: the IC50 is under 2 µM.

In the case of `O=C(Nc1cccc(COc2cccnc2)c1)c1ccccc1`, the 50% inhibitory concentration (IC50) was under 200 µM.

`CC(C)(C)c1cc(NC(=O)Oc2cccc(COc3cnccn3)c2)n(-c2ccccc2)n1` registered an IC50 of under 200 µM.

`Nc1cnc(OCc2ccccc2)cn1`: the IC50 is under 1000 µM.

For the compound `O=C(Nc1ccc(F)c(COc2cnccn2)c1)Nc1nnc(CC2CC2)s1`, the IC50 was under 2 µM.

In the case of `Nc1ncccc1OCc1cccc(C(=O)NCc2cccc3ccccc23)c1`, the IC50 was under 1000 µM.

`CC(C)(Cc1ccncc1)NC(=O)c1cnc(OCc2c(Cl)cccc2Cl)cn1` gave an IC50 of under 20 µM.

The compound `Nc1ncccc1OCc1cccc(C(=O)NCC2CC2)c1` yielded an IC50 of under 1000 µM.

`O=C(Nc1ccccc1)Oc1cccc(COc2cnccn2)c1` gave an IC50 of under 200 µM.

`CC(C)(C)c1cc(NC(=O)Nc2ccc(F)c(COc3cnccn3)c2)n(-c2ccncc2)n1` showed an IC50 of under 2 µM.

Take `CC(C)(C)c1cc(C(=O)Nc2ccc(F)c(COc3cnccn3)c2)n(Cc2ccccc2)n1`: the IC50 was under 20 µM.

`CC(C)(C)c1cc(NC(=O)Nc2ccc(F)c(COc3cnccn3)c2)n(-c2ccc(S(C)(=O)=O)cc2)n1` gave an IC50 of under 2 µM.

Turning to `CN1CCN(CC(=O)Nc2cnc(OCc3c(Cl)cccc3Cl)cn2)CC1`, the IC50 was under 20 µM.

`O=C(Nc1ccc(F)c(COc2cnccn2)c1)Nc1cc(-c2ccccc2)nn1-c1ccccc1` showed an IC50 of under 2 µM.

For `Clc1ncccc1OCc1ccccc1`, the IC50 is under 2000 µM.

`COc1cc(C(=O)Nc2ccc(F)c(COc3cnccn3)c2)nc(Cl)n1` came in with an IC50 of under 1000 µM.

As for `O=C(Nc1ccc(F)c(COc2cnccn2)c1)c1cccc(Oc2ccccc2)c1`, the IC50 is under 2 µM.

As to `Nc1ncccc1OCc1ccccc1CS(=O)(=O)c1ccccc1`, the IC50 is under 1000 µM.

As to `CC(C)(C)c1cc(C(=O)Nc2ccc(F)c(COc3cnccn3)c2)n(Cc2ccc(F)cc2)n1`, the IC50 was under 20 µM.

With `Cc1cc(C)cc(COc2cccnc2N)c1`, the IC50 is under 200 µM.

In turn, `Nc1ncccc1OCn1nnc2ccccc21` displayed an IC50 of under 1000 µM.

Turning to `O=C(Nc1ccc(F)c(COc2cnccn2)c1)Nc1nc(-c2ccccc2)cs1`, the IC50 was under 20 µM.

With `C[S+]([O-])c1nnc(NC(=O)Nc2ccc(F)c(COc3cnccn3)c2)s1` (centres undefined), the IC50 is under 1000 µM.

Regarding `CC(C)c1nnc(NC(=O)Nc2ccc(F)c(COc3cnccn3)c2)s1`, the IC50 is under 20 µM.

`O=C(Nc1ccc(Cl)c(COc2cccnc2)c1)Oc1ccccc1` displayed an IC50 of under 20 µM.

As for `O=C(Nc1ccc(F)c(COc2cnccn2)c1)Nc1nnc(Cc2ccccc2)s1`, the IC50 was under 2 µM.

Compound `C=CS(=O)(=O)Nc1cnc(OCc2c(Cl)cccc2Cl)cn1` displayed an IC50 of under 200 µM.

Take `Clc1cccc(Cl)c1COc1cnc(N2CCOCC2)cn1`: the IC50 was under 200 µM.

In turn, `Nc1ncccc1OCc1cccc(-c2ccccc2)c1` yielded an IC50 of under 200 µM.

For `Nc1ncccc1OCc1ccc(Cl)c(F)c1`, the IC50 is under 200 µM.

Consider `Nc1ncccc1OCc1cccc(Cl)c1F`, for which the IC50 is under 1000 µM.

The compound `Nc1ncccc1OCc1cc(NC(=O)c2ccccc2)ccc1Cl` returned an IC50 of under 20 µM.

Take `CC(C)(C)c1cc(NC(=O)Nc2ccc(F)c(COc3cnccn3)c2)n(-c2ccccc2)n1`: the IC50 was under 2 µM.

`Clc1cccc(Cl)c1COc1ccc(NCc2ccccc2)nc1` returned an IC50 of under 200 µM.

In turn, `Clc1cccc(Cl)c1COc1cnc(NC2CCOCC2)cn1` registered an IC50 of under 200 µM.

The compound `Nc1ncccc1OCc1c(F)cccc1Cl` came in with an IC50 of under 1000 µM.

As for `CC(C)(C)c1cc(NC(=O)Nc2ccc(F)c(COc3cnccn3)c2)n(-c2nc3ccccc3s2)n1`, the half-inhibitory concentration (IC50) is under 20 µM.

Take `Nc1ncccc1OCc1c(F)cc(F)cc1F`: the IC50 was under 1000 µM.

Compound `O=C(Nc1ccc(F)c(COc2cnccn2)c1)Nc1cc(-c2ccc(Cl)cc2)nn1-c1ccc(F)cc1` had an IC50 of under 2 µM.

Take `O=C(CN1CCCCC1)Nc1cnc(OCc2c(Cl)cccc2Cl)cn1`: the half-inhibitory concentration (IC50) was under 200 µM.

Take `c1cncc(OCc2cccc3ccccc23)c1`: the IC50 is under 1000 µM.

The compound `COc1ccccc1COc1cccnc1N` yielded an IC50 of under 1000 µM.

In the case of `CCN(CC)C(=O)Nc1cnc(OCc2c(Cl)cccc2Cl)cn1`, the IC50 is under 200 µM.

Compound `O=C(Nc1ccc(F)c(COc2cnccn2)c1)Nc1cc(-c2ccc(Cl)cc2)nn1-c1ccccc1` registered an IC50 of under 2 µM.

Take `OCCNc1cnc(OCc2c(Cl)cccc2Cl)cn1`: the IC50 was under 200 µM.

As for `Cc1cc(-n2nc(C(C)(C)C)cc2NC(=O)Nc2ccc(F)c(COc3cnccn3)c2)nc(C)n1`, the IC50 is under 2 µM.

The compound `O=C(Nc1ccc(F)c(COc2cnccn2)c1)Nc1cc(C2CCOCC2)nn1-c1ccc(F)cc1` gave an IC50 of under 2 µM.

`Nc1ncccc1OCc1cccc(OC(F)(F)F)c1` registered an IC50 of under 10000 µM.

`Nc1ncccc1OCc1ccc(Cl)cc1Cl` displayed an IC50 of under 1000 µM.

`O=C(Nc1ccc(F)c(COc2cnccn2)c1)Nc1n[nH]cc1-c1ccccc1` showed an IC50 of under 20 µM.

Compound `CC(C)(C)c1cc(NC(=O)Nc2ccc(F)c(COc3cnccn3)c2)n(-c2ccc(Cl)nn2)n1` had an IC50 of under 2 µM.

`Clc1cccc(Cl)c1COc1cnc(NCc2ccccc2)cn1` returned an IC50 of under 20 µM.
